Legend:
[1] = target: recombinant hCD47 and recombinant hCD40 (Homo sapiens, UniProt P25942+Q08722); experiment: Functional dual ELISA, hCD40 capture and hCD47-His detection; type: binding
splenic dendritic cells = experiment: In vivo splenic dendritic cell activation; design: species or system mice; details: versus antibody treated groups
Description: For each panel, the samples are (left to right): untreated, sheep RBCs, αCD47 (MIAP301), αSIRPα (P84), mSIRPα-Fc-CD40L, mSIRPα-Fc-CD40L (24 Hrs), and αCD47 (MIAP301) (24 hrs). FIG. 9B is a quantitation of in vivo dendritic cell activation corresponding to FIG. 9A. Shown is the absolute percent of CD4+ and CD8+ dendritic cells; also gated on CD11c and DC1R2. In FIG. 9B, for each panel, the samples are (left to right): untreated, sheep RBCs, αCD47 (MIAP301), αSIRPα (P84), SIRPα-Fc-CD40L (150 μg), SIRPα-Fc-CD40L (300 μg), SIRPα-Fc-CD40L (300 μg) (24 Hrs), and αCD47 (MIAP301) (24 hrs).
An in vivo assay to examine SIRPα/CD47 function in mice was describe in Yi et al., “Splenic Dendritic Cells Survey Red Blood Cells for Missing Self-CD47 to Trigger Adaptive Immune Responses. Immunity. 2015;43(4):764-75) (the contents of which is incorporated by reference in its entirety). This assay detects the activation status of splenic dendritic cells in response to SIRPa/CD47 inhibitors or to infused sheep red blood cells (RBC).
After 6 or 24 hours, mice were euthanized and their spleens excised, dissociated, and assessed by flow cytometry for populations of activated CD4+ dendritic cells (DCs) (FIG. 9A, left panel) or CD8+dendritic cells (FIG. 9A, right panel); both populations of dendritic cells were also positive for MHC II (I-Ab), CD11c, and DC1R2.

[2] = system: low Her2-expressing breast cancer cell line (MCF7); experiment: Macrophage engulfment of MCF7 cells; type: cell-based, human; details: HER2LOW cell line MCF7
[3] = system: A431, HCC827, K562, HCC1954 and MCF7 cells; experiment: Macrophage phagocytosis of EGFR/HER2 human tumor cell line panel; type: cell-based; details: variety of human tumor cell lines
[4] = system: human donor red blood cells (RBCs); experiment: In vitro hemolysis assay, human erythrocytes; type: cell-based
Description: FIG. 22B is a graph showing RBCs and test agents that were incubated at 37° C. for 24 hours and then the media was assessed at OD490 for changes in absorbance due to hemoglobin being released from lysing RBCs. […] FIG. 22D are graphs showing that peripheral blood was isolated from mice receiving three IP doses (300 μg) of the murine SIRPα-Fc-CD40L surrogate (arrows). Cell populations were assessed by flow cytometry and included CD20+ B cells, CD110+, CD4+/CD11c+, and CD8+/CD11c+ dendritic cells.
(§1) However, the in vitro systems used to test this question have significant limitations, including a complete lack of macrophages in the test system.

[5] = system: cynomolgus macaque erythrocytes; experiment: In vitro hemolysis assay, cynomolgus macaque erythrocytes; type: cell-based
Text: as §1

parental CHOK1 cells = experiment: Flow cytometry binding to parental CHOK1 cells
Text: Scale is shown and yellow arrows correspond with each identified monomer. A schematic of the hexamer species is shown to the right, depicting dimerization of the Fc domain and trimerization of the CD40L domain. […] Recombinant hSIRPα-Fc, hCD40L-Fc, and hIgG1 were used as positive controls. […] In both panels, the CHOK1 Parental is on the left and the CHOK1/hCD47 is on the right. […] For both graphs, the CHOK1 Parental is on the bottom. […] In this figure, the control is the top curve, the SIRPα-Fc-CD40L is the middle curve, and the anti-CD47 is the bottom curve.
The extracellular domain (ECD) of SIRPα and the ECD of CD40L were fused via an antibody Fc domain to generate SIRPαECD-Fc-CD40LECD chimeric proteins. When human proteins were used, the chimeric protein is referred to as hSIRPα-Fc-CD40L; when murine proteins were used, the chimeric protein is referred to as and mSIRPα-Fc-CD40L. […] The purified protein was then analyzed for the presence of each individual domain by Western blotting using anti-SIRPα, anti-Fc, and anti-CD40L antibodies (FIG. 3A, bottom). […] Next, binding affinities for SIRPα-Fc-CD40L to recombinant CD47, CD40, or Fc receptors were evaluated by surface plasmon resonance (SPR). […] A functional ELISA evaluated whether SIRPα-Fc-CD40L could outcompete a commercially available single-sided SIRPα-Fc control for binding to recombinant CD47 (FIG. 3H).

[6] = Repeat-dose safety and activity study in cynomolgus macaques; type: in vivo
Description: FIG. 21A-D is a graph showing cynomolgus macaques that were treated with vehicle, or 0.1, 1, 10, and 40 mg/kg of SIRPα-Fc-CD40L. Blood chemistry analysis assessed peripheral erythrocyte counts (FIG. 21A), hemoglobin levels (FIG. 21C), and hematocrit (FIG. 21B). In addition, the fold-change in lymphocyte count from pre-dose to 24 hours post-dose is shown (FIG. 21D).
The experiments of this example tested the safety and activity of the human SIRPα-Fc-CD40L chimeric protein following repeat doses in cynomolgus macaques. Briefly, naïve cynomolgus macaques were administered the human SIRPα-Fc-CD40L chimeric protein by intravenous infusion every week, for five consecutive weeks, at doses of 0.1, 1, 10 and 40 mg/kg. Standard hematology and clinical chemistry parameters were collected before and after each dose.
Receptor occupancy was evaluated on circulating CD40+ lymphocytes.

simultaneous binding to recombinant hCD47 and recombinant hCD40 [1]: simultaneous binding
Substance: SIRPα-Fc-CD40L: Generic name of the SIRPα ECD-Fc-CD40L ECD chimeric protein; human or murine version depending on the test system
proportion of overall splenic DCs (splenic dendritic cells): higher proportion of overall splenic DCs than was observed in the antibody treated groups | phagocytosis [2]: demonstrated monotherapy activity | macrophage phagocytosis of tumor cells [3]: stimulated macrophage phagocytosis of tumor cells | hemolysis in vitro [4]: did not reveal evidence of hemolysis | hemolysis in vitro [5]: did not reveal evidence of hemolysis | binding to parental CHOK1 cells (parental CHOK1 cells): not to parental CHOK1 cells | number of CD40+ cells in the peripheral blood ([6]; 0.1, 1, 10 and 40 mg/kg): dose-dependent decrease in the number of CD40+ cells in the peripheral blood | hematology parameters ([6]; declines also noted in the vehicle control group): Mild declines in hematology parameters | total number of lymphocytes before and after each dose ([6]; episodic fluctuation): did not depart from the upper and lower range of normal | serum cytokines (CCL2, CXCL9, CXCL10, IL-6, IL-15, IL-17A, IL-23) ([6]; following each infusion): dose-dependent increases in multiple serum cytokines

Reference: US20200071380A1, “COMBINATION THERAPIES COMPRISING SIRP ALPHA-BASED CHIMERIC PROTEINS” (Shattuck Labs, Inc., priority 2018, published 2020)
